In patent US5789431A, “Naphthoquinone antitumor compound and method” (The University of North Carolina at Chapel Hill, priority 1996, dated 1998):

Key:
SK-MEL-2 = experiment: in vitro melanoma cell growth inhibition (NCI screen)
UACC-62 = experiment: as above
HL-60(TB) = experiment: in vitro leukemia cell growth inhibition (NCI screen)
MOLT-4 = experiment: as above
RPMI-8226 = experiment: as above
SR = experiment: as above
U 251 = experiment: in vitro CNS cancer cell growth inhibition (NCI screen)
XF-498 = experiment: as above
DLD-1 = experiment: in vitro colon cancer cell growth inhibition (NCI screen)
RXF-393 = experiment: in vitro renal cancer cell growth inhibition (NCI screen)
RXF-631 = experiment: as above
SN12C = experiment: as above
HOP-92 = experiment: in vitro non-small cell lung cancer cell growth inhibition (NCI screen)
NCI-H266 = experiment: as above
human tumor cell lines = assay type: cell-based; settings: for cytotoxicity against tumor cells (in words): cancer cell line panel
M19-MEL = experiment: in vitro melanoma cell growth inhibition (NCI screen)
CCRF-CEM = experiment: in vitro leukemia cell growth inhibition (NCI screen)
SF-268 = experiment: in vitro CNS cancer cell growth inhibition (NCI screen)
SNB-19 = experiment: as above
SNB-75 = experiment: as above
TK-10 = experiment: in vitro renal cancer cell growth inhibition (NCI screen)
IGROV1 = experiment: in vitro ovarian cancer cell growth inhibition (NCI screen)
OVCAR-3 = experiment: as above
OVCAR-8 = experiment: as above
HOP-62 = experiment: in vitro non-small cell lung cancer cell growth inhibition (NCI screen)
NCI-H23 = experiment: as above
NCI-H522 = experiment: as above
MALME-3M = experiment: in vitro melanoma cell growth inhibition (NCI screen)
UACC-257 = experiment: as above
SF-539 = experiment: in vitro CNS cancer cell growth inhibition (NCI screen)
ACHN = experiment: in vitro renal cancer cell growth inhibition (NCI screen)
UO-31 = experiment: as above
NCI-H460 = experiment: in vitro non-small cell lung cancer cell growth inhibition (NCI screen)
M14 = experiment: in vitro melanoma cell growth inhibition (NCI screen)
SK-MEL-28 = experiment: as above
MCF-7 = experiment: in vitro breast cancer cell growth inhibition (NCI screen)
MDA-MB-435 = experiment: as above
MDA-N = experiment: as above
OVCAR-5 = experiment: in vitro ovarian cancer cell growth inhibition (NCI screen)
K-562 = experiment: in vitro leukemia cell growth inhibition (NCI screen)
HCT-116 = experiment: in vitro colon cancer cell growth inhibition (NCI screen)
KM 12 = experiment: as above
OVCAR-4 = experiment: in vitro ovarian cancer cell growth inhibition (NCI screen); settings: OVACR-4
HOP-18 = experiment: in vitro non-small cell lung cancer cell growth inhibition (NCI screen)
LXFL 529 = experiment: as above
LOX1MVI = experiment: in vitro melanoma cell growth inhibition (NCI screen)
SK-MEL-5 = experiment: as above
COLO-205 = experiment: in vitro colon cancer cell growth inhibition (NCI screen)
SW 620 = experiment: as above
SF-295 = experiment: in vitro CNS cancer cell growth inhibition (NCI screen)
HCT-15 = experiment: in vitro colon cancer cell growth inhibition (NCI screen)
786-0 = experiment: in vitro renal cancer cell growth inhibition (NCI screen)

Row | SMILES | cytotoxicity log GI50 (SK-MEL-2) | cytotoxicity log GI50 (UACC-62) | cytotoxicity log GI50 (HL-60(TB)) | cytotoxicity log GI50 (MOLT-4) | cytotoxicity log GI50 (RPMI-8226) | cytotoxicity log GI50 (U 251) | cytotoxicity log GI50 (DLD-1) | cytotoxicity log GI50 (RXF-393) | cytotoxicity log GI50 (RXF-631) | cytotoxicity log GI50 (HOP-92) | cytotoxicity log GI50 (M19-MEL) | cytotoxicity log GI50 (CCRF-CEM) | cytotoxicity log GI50 (SNB-75) | cytotoxicity log GI50 (OVCAR-3) | cytotoxicity log GI50 (NCI-H23) | cytotoxicity log GI50 (NCI-H522) | cytotoxicity log GI50 (MALME-3M) | cytotoxicity log GI50 (UACC-257) | cytotoxicity log GI50 (SF-539) | other results
1 | CCC(c1ccc(F)cc1)c1nc2c(n1CC)C(=O)c1ccccc1C2=O (stereo not shown) [Compound 65] | -4.77 M | -4.95 M | -4.74 M | -4.73 M | -4.68 M | -4.71 M | -5.69 M | -4.83 M | -4.71 M | -4.75 M |  |  |  |  |  |  |  |  |  | cytotoxicity log GI50 (SR): -4.73 M; cytotoxicity log GI50 (XF-498): -4.70 M; cytotoxicity log GI50 (SN12C): -4.90 M; cytotoxicity log GI50 (NCI-H266): -4.82 M
2 | NC1=C(NC(=O)Cc2ccc(F)cc2)C(=O)c2ccccc2C1=O [Compound 3c] |  |  | -4.59 M |  |  | -5.09 M | -4.95 M | -4.68 M |  | -4.48 M | -5.16 M | -4.55 M | -4.49 M | -4.88 M | -4.87 M | -4.79 M |  |  |  | cytotoxicity against tumor cells (in words) (human tumor cell lines): inactive against all representative cancer cell lines; cytotoxicity log GI50 (SF-268): -4.54 M; cytotoxicity log GI50 (SNB-19): -4.63 M; cytotoxicity log GI50 (TK-10): -4.57 M; cytotoxicity log GI50 (IGROV1): -4.71 M; cytotoxicity log GI50 (OVCAR-8): -4.47 M; cytotoxicity log GI50 (HOP-62): -4.56 M
3 | CCn1c(Cc2ccc(F)cc2)nc2c1C(=O)c1ccccc1C2=O [Compound 66] |  |  | -5.33 M |  | -4.94 M |  |  |  | -4.82 M | -4.97 M | -5.02 M | -5.08 M | -4.80 M |  |  | -5.06 M | -4.94 M | -5.10 M | -4.88 M | cytotoxicity log GI50 (ACHN): -4.85 M; cytotoxicity log GI50 (UO-31): -5.33 M; cytotoxicity log GI50 (NCI-H460): -4.90 M
4 | COC(=O)CCC(=O)NC1=C(Nc2ccccc2)C(=O)c2ccccc2C1=O [Compound 54] | -5.41 M | -5.75 M | -5.46 M |  |  |  |  |  |  |  |  |  |  | -5.52 M |  |  | -5.76 M | -5.56 M | -5.11 M | cytotoxicity log GI50 (M14): -5.71 M; cytotoxicity log GI50 (SK-MEL-28): -5.59 M; cytotoxicity log GI50 (MCF-7): -5.75 M; cytotoxicity log GI50 (MDA-MB-435): -5.67 M; cytotoxicity log GI50 (MDA-N): -5.69 M; cytotoxicity log GI50 (OVCAR-5): -5.41 M
5 | O=C(Cc1ccccc1F)NC1=C(Cl)C(=O)c2ccccc2C1=O [Compound 2i, 2-(2-Fluorophenyl)acetamido-3-chloro-1,4-naphthoguinone] | -6.21 M | -6.48 M | -6.55 M | -6.60 M | -6.44 M | -6.48 M |  |  |  |  | -6.36 M | -6.54 M | -6.33 M |  | -6.25 M | -6.67 M |  |  | -6.62 M | GI50 (human tumor cell lines; Homo sapiens, cancer cell panel, general / most cell lines, read-out: logGI50 values in the cancer cell line panel (converted)): 0.0251 to 2.51 µM; cytotoxicity log GI50 (M14): -6.29 M; cytotoxicity log GI50 (SK-MEL-28): -6.34 M; cytotoxicity log GI50 (K-562): -6.53 M; cytotoxicity log GI50 (SR): -6.32 M; cytotoxicity log GI50 (HCT-116): -6.37 M; cytotoxicity log GI50 (KM 12): -6.29 M; cytotoxicity log GI50 (IGROV1): -6.17 M; cytotoxicity log GI50 (OVCAR-4): -6.22 M; cytotoxicity log GI50 (HOP-18): -6.18 M; cytotoxicity log GI50 (NCI-H460): -6.15 M; cytotoxicity log GI50 (LXFL 529): -6.40 M
6 | COc1ccc(CNC2=C(NC(C)=O)C(=O)c3ccccc3C2=O)cc1 [Compound 41] | -5.04 M | -5.11 M | -5.77 M | -5.43 M |  |  | -5.07 M |  | -5.19 M | -5.18 M | -5.02 M | -5.06 M |  | -5.09 M | -5.17 M | -5.86 M | -5.08 M | -5.06 M | -5.13 M | cytotoxicity log GI50 (LOX1MVI): -5.07 M; cytotoxicity log GI50 (SK-MEL-5): -5.13 M; cytotoxicity log GI50 (K-562): -5.11 M; cytotoxicity log GI50 (COLO-205): -5.03 M; cytotoxicity log GI50 (HCT-116): -5.29 M; cytotoxicity log GI50 (SW 620): -5.09 M; cytotoxicity log GI50 (ACHN): -5.68 M; cytotoxicity log GI50 (UO-31): -5.02 M; cytotoxicity log GI50 (OVCAR-4): -5.09 M
7 | NC1=C(NC(=O)Cc2ccccc2F)C(=O)c2ccccc2C1=O [Compound 3b] | -4.84 M | -4.42 M |  |  |  | -4.44 M | -4.78 M | -4.46 M |  | -4.65 M | -5.35 M |  | -4.73 M | -5.08 M |  | -4.67 M | -4.87 M | -4.53 M | -4.57 M | cytotoxicity against tumor cells (in words) (human tumor cell lines): inactive against all representative cancer cell lines; cytotoxicity log GI50 (SF-268): -4.46 M; cytotoxicity log GI50 (SF-295): -4.49 M; cytotoxicity log GI50 (SNB-19): -4.45 M; cytotoxicity log GI50 (HCT-15): -4.62 M; cytotoxicity log GI50 (786-0): -4.57 M; cytotoxicity log GI50 (HOP-62): -4.59 M
